Test results: patent US6407134B1, “Heterocyclecarbonyl amino acid hydroxyethylamino sulfonamide retroviral protease inhibitors” (G. D. Searle & Co., priority 1995, dated 2002)
Where two headings read alike, the source gives them in different places.

Assays:
HIV protease = target: T1, HIV protease (Human immunodeficiency virus type 1 group M subtype B, UniProt P04585); assay: HIV protease enzyme assay (fluorescence, substrate 2-Ile-Nle-Phe(p-NO2)-Gln-ArgNH2); assay type: biochemical
T1 construct: HIV protease is diluted in the assay buffer to a final enzyme concentration of 12.3 nanomolar, based on a molecular weight of 10,780
From the text: The compounds of the present invention are effective HIV protease inhibitors. Utilizing an enzyme assay as described below, the compounds set forth in the examples herein disclosed inhibited the HIV enzyme. The preferred compounds of the present invention and their calculated IC50 (inhibiting concentration 50%, i.e., the concentration at which the inhibitor compound reduces enzyme activity by 50%) values are shown in Table 10. The enzyme method is described below. The substrate is 2-Ile-Nle-Phe(p-NO2)-Gln-ArgNH2. The positive control is MVT-101 (Miller, M. et al, Science, 246, 1149 (1989)] The assay conditions are as follows:
20 mM sodium phosphate, pH 6.4
The above described substrate is dissolved in DMSO, then diluted 10 fold in assay buffer. Final substrate concentration in the assay is 80 μM. HIV protease is diluted in the assay buffer to a final enzyme concentration of 12.3 nanomolar, based on a molecular weight of 10,780.
The final concentration of DMSO is 14% and the final concentration of glycerol is 18%. The test compound is dissolved in DMSO and diluted in DMSO to 10× the test concentration; 10 μl of the enzyme preparation is added, the materials mixed and then the mixture is incubated at ambient temperature for 15 minutes. […] The increase in fluorescence is monitored at 4 time points (0, 8, 16 and 24 minutes) at ambient temperature. […]

HIV-1 in CEM cells = assay: CEM cell assay: HIV inhibition in acutely infected cells, tetrazolium (MTT) based colorimetric assay; settings: Human immunodeficiency virus 1, CCRF-CEM, 168 h; CEM cells acutely infected with HIV-1, 7 days, MTT readout
Procedure: The effectiveness of various compounds were determined in the above-described enzyme assay and in a CEM cell assay.
The HIV inhibition assay method of acutely infected cells is an automated tetrazolium based colorimetric assay essentially that reported by Pauwles et al, J. Virol. Methods, 20, 309-321 (1988). Assays were performed in 96-well tissue culture plates. CEM cells, a CD4+ cell line, were grown in RPMI-1640 medium (Gibco) supplemented with a 10% fetal calf serum and were then treated with polybrene (2 μg/ml). An 80 μl volume of medium containing 1×10^4 cells was dispensed into each well of the tissue culture plate. To each well was added a 100 μl volume of test compound dissolved in tissue culture medium (or medium without test compound as a control) to achieve the desired final concentration and the cells were incubated at 37° C. for 1 hour. […] Likewise, the intrinsic toxicity of the test compound was determined by adding medium without virus to several wells containing test compound. […]
Following the addition of virus, cells were incubated at 37° C. in a humidified, 5% CO2 atmosphere for 7 days. […] The absorbance at 590 nm was determined for each sample using a Molecular Devices microplate reader. Absorbance values for each set of wells is compared to assess viral control infection, uninfected control cell response as well as test compound by cytotoxicity and antiviral efficacy.

SMILES | IC50 (HIV protease) [nM] | EC50 (HIV-1 in CEM cells) [nM] | IC50 (HIV protease; HIV protease 12.3 nanomolar, substrate 80 μM, pH 6.4, ambient temperature, read-out: IC50) [nM]
CC(C)CN(C[C@@H](O)[C@H](Cc1ccccc1)NC(=O)[C@@H](NC(=O)[C@@H]1CCCN1)C(C)(C)C)S(=O)(=O)c1ccc2c(c1)OCO2 [Entry 1] | 2 | 12 | –
CCC(C)[C@H](NC(=O)[C@@H]1CCCN1)C(=O)N[C@@H](Cc1ccccc1)[C@H](O)CN(CC(C)C)S(=O)(=O)c1ccc2c(c1)OCO2 (stereo partly drawn) [Entry 2] | – | – | 3
